Entries after “also recorded” stand apart in the source; their conditions may differ.
Key:
MRGPRX2 = target: T1, MRGPRX2 (Homo sapiens, UniProt Q96LB1); experiment: β-hexosaminidase release, primary human skin mast cells; format: cell-based
T1 sequence (Q96LB1 1-330): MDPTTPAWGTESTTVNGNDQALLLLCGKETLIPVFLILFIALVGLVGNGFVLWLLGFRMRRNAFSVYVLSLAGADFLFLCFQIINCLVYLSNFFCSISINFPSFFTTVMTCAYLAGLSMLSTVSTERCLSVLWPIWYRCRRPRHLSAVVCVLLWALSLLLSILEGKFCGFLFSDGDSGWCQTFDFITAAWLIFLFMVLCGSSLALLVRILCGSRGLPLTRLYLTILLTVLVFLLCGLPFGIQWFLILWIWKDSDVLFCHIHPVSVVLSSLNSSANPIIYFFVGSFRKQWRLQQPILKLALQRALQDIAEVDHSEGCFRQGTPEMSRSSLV
Description: Finally, the effect of the MRGPRX2 antagonist PSB-172656 on MRGPRX2-mediated MC degranulation in primary human skin mast cells isolated from breast skin tissue was investigated. These cells were controlled by flow cytometry for CD117, FcεRI, and MRGPRX2 to ensure their purity (Supplementary Fig. S6), and their functionality was assessed using the MC degranulation β-hexosaminidase release assay (Fig. 6g).
MCs were isolated from breast skin tissue, which was sectioned into strips and digested overnight at 4 °C in 2.4 U/mL dispase type II (Fisher Scientific). […] The purity of the MC cultures was assessed by flow cytometry for CD117 and FcεRI (Miltenyi) and exceeded 95%. […]
For β-hexosaminidase release assays, MCs were fed the day before stimulation with the medium. […] The reaction was stopped by adding 100 µL of sodium carbonate buffer (pH 10.7), and fluorescence was measured at 460 nm and excitation at 355 nm for 0.1 s. The percentage of β-hexosaminidase release was calculated as: […] × 100. […]

[1] = system: C48/80-induced systemic anaphylaxis; experiment: Systemic anaphylactic reaction, plasma CCL2; format: in vivo, mouse; details: 50 mg/kg b.w., i.p.; C48/80 2 mg/kg i.p.; 4 h; listed as PSB-172656
Description: PSB-172656 was further investigated in a mouse model of skin inflammation,[54] determining its effects on C48/80-induced hind paw edema. […] These findings indicate a strong anti-inflammatory effect of the MRGPRX2/B2 antagonist in this mouse model.
30 min after intraperitoneal administration of PSB-172656 at a dose of 50 mg/kg b.w. or vehicle (2% DMSO), an anaphylactic reaction was induced by the intraperitoneal injection of C48/80 at a dose of 2 mg/kg b.w. (in 0.9% NaCl). The non-lethal dose of this compound was assumed based on the literature.[70],[71] The mice were then left in their cages for 4 h. Then, heparin (2500 U/mouse) and sodium thiopental at a dose of 70 mg/kg b.w. were administered intraperitoneally, and blood was collected after decapitation. The plasma concentration of CCL-2 and IL-8 was determined using an ELISA kit (catalog number: E1707Mo, E1481Mo, BT LAB, China).

[2] = system: muscarinic acetylcholine receptors (mAChRs); experiment: Ca2+ assay versus carbachol in LN229-MRGPRX2 cell line; format: cell-based, human; details: 10 µM, carbachol 100 µM

| inhibition at 1.25 µM (MRGPRX2; lowest tested concentration 1.25 µM, versus CST-14, read-out: inhibition of β-hexosaminidase release in human skin MCs) | Structure (SMILES) | effect on MC degranulation in primary human skin mast cells (MRGPRX2; versus CST-14 (1 µM)) | effect on plasma CCL2 levels [1] | inhibition of signal induced by carbachol [2] |
| --- | --- | --- | --- | --- |
| > 50% | CCc1c(C(C)C)[nH]c2nc3cc(F)c(F)cc3n2c1=O [Compound 24, 3-ethyl-7,8-difluoro-2-isopropylbenzo[4,5]imidazo [1,2-a] pyrimidin-4(1H)-one] | inhibited MC degranulation in response to CST-14 exposure (1 µM) in a concentration-dependent manner | significantly decreased levels of CCL2; also recorded: prevented the dramatic increase in CCL2 levels |  |
|  | CCCc1c(C)[nH]c2nc3ccccc3n2c1=O [Compound 1, 2-methyl-3-propylbenzo[4,5]imidazo[1,2-a]pyrimidin-4(1H)-one] |  |  | did not inhibit |
